Measured values: patent US20100004267A1, “LIQUID PREPARATION” (ASUBIO PHARMA CO., LTD., priority 2006, published 2010)
Where two headings read alike, the source gives them in different places.

Columns and labels:
[1] = Examination of solubilizing agent: solubility of SUN N8075 (Test example 1); type: physicochemical; conditions: for solubility at 30 min: phosphate-buffered saline with solubilizing agent, 24 °C, kinetic from dmso stock, read-out: Concentration (solubility of SUN N8075)
Description: 8 mg/mL aqueous solution of SUN N8075 was prepared. On the other hand, for each solubilizing agent, an aqueous solution having approximately 0.4% of solubilizing agent was prepared.
10 mL of SUN N8075 aqueous solution and 10 mL of solution of each solubilizing agent were mixed to give Mixture A, and Mixture A was filtered through a filter of 0.22 μm.
6.24 g of sodium dihydrogen phosphate and 16.4 g of sodium chloride were weighed and water was added to make the volume precisely 1,000 mL. To this solution, 1 mol/L sodium hydroxide test solution was added dropwise and the pH value was adjusted to 7.4, which was named Mixture B.
Mixture of each 2.5 mL of Mixture A and Mixture B was provided as a test solution (in each test solution, the concentration of SUN N8075 corresponds to 2 mg/mL, and the concentration of solubilizing agent corresponds to 0.1%).
As for a solubilizing agent of which degree of improving solubility of SUN N8075 was high, tests with concentrations of the added solubilizing agent varied were additionally executed in accordance with the method as described above.

[2] = Examination on two-component antioxidant sodium bisulfite/L-cysteine hydrochloride monohydrate (Test example 6); type: physicochemical
Description: According to the formulation of Tables 7 and 8, to 100-150 mL of purified water, sodium bisulfite (Japanese Pharmacopoeia; available from JUNSEI CHEMICAL), L-cysteine hydrochloride monohydrate (available from Nacalai Tesque), and SUN N8075 were added and dissolved in this order, and the volume was made precisely to 200 mL by addition of purified water.
After filtering under reduced pressure, the solution was bubbled with nitrogen gas for 5 minutes (not executed for the case “without nitrogen gas replacement”), and 20 mL of the solution was immediately filled into a brown ampule (Silicoat ampule, brown, 20 mL capacity, available from FUJI GLASS CO., LTD.) replaced with nitrogen gas (not executed for the case “without nitrogen gas replacement”), and then the ampule was sealed. Using autoclave (FLC-M09S30WZ, available from SAKURA SEIKI Co., Ltd.), autoclave sterilization was conducted in a setting condition: 121° C./24 minutes.
For each sample, insoluble foreign matters and odor were evaluated.
Evaluation of insoluble foreign matters was conducted using an appearance checker (under 1,000 Lux).
Also dissolved oxygen concentration in solution was measured.

[3] = tested on: aorta of rat; assay: Blood vessel stimulus and precipitation at administration site (Test example 2); type: in vivo
Description: Saline, a solution in saline to which 0.1% of Tween80 was added, and a solution in saline to which 0.5, 1.0, 2.0 or 3.0% of β-cyclodextrin sulfobutyl ether sodium salt dissolving various concentrations described in Table 2 below of SUN N8075 were prepared, and administered to aorta of rat, and precipitation of SUN N8075 and presence of stimulus (blood vessel stimulus) on tissues at the site of administration were evaluated.

[4] = sodium bisulfite 0.05% (0.1 g), L-cysteine HCl monohydrate 0.05 g (ratio 1/2), N2 done, dissolved oxygen 0.91 ppm
[5] = sodium bisulfite 0.05% (0.1 g), L-cysteine HCl monohydrate 0.1 g (ratio 1/1), N2 done, dissolved oxygen 0.88 ppm
[6] = sodium bisulfite 0.075% (0.15 g), L-cysteine HCl monohydrate 0.1 g (ratio 2/3), N2 done, dissolved oxygen 1.66 ppm
[7] = sodium bisulfite 0.075% (0.15 g), L-cysteine HCl monohydrate 0.5 g (ratio 1/1), N2 done, dissolved oxygen 0.97 ppm
[8] = sodium bisulfite 0.1% (0.2 g), L-cysteine HCl monohydrate 0.1 g (ratio 1/2), N2 done, dissolved oxygen 1.27 ppm
[9] = sodium bisulfite […] (0.05 g), L-cysteine HCl monohydrate 0.05 g (ratio 1/1), N2 done, dissolved oxygen 0.82 ppm
[10] = 0.1% Tween80 in saline, drug conc. 0.23 mg/mL, 72 hour
[11] = 0.1% Tween80 in saline, drug conc. 0.7 mg/mL, 72 hour
[12] = 0.5% Captisol in saline, drug conc. 0.7 mg/mL, 24 hour
[13] = 1.0% Captisol in saline, drug conc. 0.7 mg/mL, 24 hour
[14] = 2.0% Captisol in saline, drug conc. 0.7 mg/mL, 24 hour
[15] = 3.0% Captisol in saline, drug conc. 0.23 mg/mL, 72 hour
[16] = 3.0% Captisol in saline, drug conc. 0.7 mg/mL, 72 hour
[17] = no solubilizing agent in saline, drug conc. 0.23 mg/mL, 72 hour
[18] = no solubilizing agent in saline, drug conc. 0.7 mg/mL, 72 hour
[19] = no solubilizing agent in saline, drug conc. 2.3 mg/mL, 72 hour

Appearance of solution ([1]; Glycerin 0.1%, pH 6.8): colorless and clear | Appearance of solution ([1]; HCO-60 0.1%, pH 6.8): colorless and clear | Appearance of solution ([1]; HCO-60 0.2%, pH 6.9): colorless and clear | Appearance of solution ([1]; HCO-60 0.5%, pH 6.8): colorless and clear | Appearance of solution ([1]; Human serum albumin 0.1%, pH 6.8): colorless and clear | Appearance of solution ([1]; Macrogol 4000 0.1%, pH 6.8): colorless and clear | Appearance of solution ([1]; Mannitol 0.1%, pH 6.8): colorless and clear | Appearance of solution ([1]; Nicotinic amide 0.1%, pH 6.8): colorless and clear | Appearance of solution ([1]; No additive, pH 6.8): colorless and clear | Appearance of solution ([1]; Propylene glycol 0.1%, pH 6.9): colorless and clear | Appearance of solution ([1]; Tween80 0.1%, pH 6.8): clouded | Appearance of solution ([1]; Tween80 0.2%, pH 6.8): clouded | Appearance of solution ([1]; Tween80 0.5%, pH 6.8): clouded | Appearance of solution ([1]; Tween80 1.0%, pH 6.8): colorless and clear | solubility at 30 min ([1]; pH 6.5, aqueous with cosolvent or surfactant or cyclodextrin, β-Cyclodextrin derivative 10%, pH 6.5): 4850 µg/mL | solubility at 30 min ([1]; pH 6.8, aqueous with cosolvent or surfactant or cyclodextrin, HCO-60 0.5%, pH 6.8): 395 µg/mL | solubility at 30 min ([1]; pH 6.8, aqueous with cosolvent or surfactant or cyclodextrin, HCO-60 (polyoxyethylene hardened castor oil) 0.1%, pH 6.8): 184 µg/mL | solubility at 30 min ([1]; pH 6.8, aqueous with cosolvent or surfactant or cyclodextrin, Human serum albumin 0.1%, pH 6.8): 14 µg/mL | solubility at 30 min ([1]; pH 6.8, aqueous with cosolvent or surfactant or cyclodextrin, Tween80 0.1%, pH 6.8): 745 µg/mL | solubility at 30 min ([1]; pH 6.8, aqueous with cosolvent or surfactant or cyclodextrin, Tween80 0.2%, pH 6.8): 1830 µg/mL | solubility at 30 min ([1]; pH 6.8, aqueous with cosolvent or surfactant or cyclodextrin, Tween80 0.5%, pH 6.8): 1790 µg/mL | solubility at 30 min ([1]; pH 6.8, aqueous with cosolvent or surfactant or cyclodextrin, Tween80 1.0%, pH 6.8): 1820 µg/mL | solubility at 30 min ([1]; pH 6.8, aqueous with cosolvent or surfactant or cyclodextrin, β-Cyclodextrin derivative 0.5%, pH 6.8): 98 µg/mL | solubility at 30 min ([1]; pH 6.8, aqueous with cosolvent or surfactant or cyclodextrin, β-Cyclodextrin derivative 1.0%, pH 6.8): 240 µg/mL | solubility at 30 min ([1]; pH 6.9, aqueous with cosolvent or surfactant or cyclodextrin, HCO-60 0.2%, pH 6.9): 334 µg/mL | solubility at 30 min ([1]; pH 6.9, aqueous with cosolvent or surfactant or cyclodextrin, β-Cyclodextrin 0.1%, pH 6.9): 26 µg/mL | solubility at 30 min ([1]; pH 6.9, aqueous with cosolvent or surfactant or cyclodextrin, β-Cyclodextrin derivative 5.0%, pH 6.9): 1420 µg/mL | Appearance of solution ([1]; β-Cyclodextrin 0.1%, pH 6.9): colorless and clear | Appearance of solution ([1]; β-Cyclodextrin derivative 0.5%, pH 6.8): colorless and clear | Appearance of solution ([1]; β-Cyclodextrin derivative 1.0%, pH 6.8): colorless and clear | Appearance of solution ([1]; β-Cyclodextrin derivative 5.0%, pH 6.9): colorless and clear | Appearance of solution ([1]; β-Cyclodextrin derivative 10%, pH 6.5): colorless and clear | Appearance of solution ([1]; β-Cyclodextrin derivative (β-cyclodextrin sulfobutyl ether sodium salt) 0.1%, pH 6.8): colorless and clear | Amount of insoluble matters/after sterilization ([2]; sodium bisulfite 0.05% (0.1 g), L-cysteine HCl monohydrate 0.03 g (ratio 3/10), N2 done, dissolved oxygen 1.85 ppm): bit | Amount of insoluble matters/after sterilization [2, 4]: great | Odor/After sterilization [2, 4]: Sulfur- | Amount of insoluble matters/after sterilization [2, 5]: great | Odor/After sterilization [2, 5]: Sulfur- | Amount of insoluble matters/after sterilization ([2]; sodium bisulfite 0.05% (0.1 g), no L-cysteine HCl monohydrate, N2 done, dissolved oxygen 0.82 ppm): bit | Amount of insoluble matters/after sterilization ([2]; sodium bisulfite 0.075% (0.15 g), L-cysteine HCl monohydrate 0.05 g (ratio 1/3), N2 done, dissolved oxygen 1.39 ppm): Bit | Amount of insoluble matters/after sterilization [2, 6]: great | Odor/After sterilization [2, 6]: Sulfur- | Amount of insoluble matters/after sterilization [2, 7]: great | Odor/After sterilization [2, 7]: Sulfur- | Amount of insoluble matters/after sterilization ([2]; sodium bisulfite 0.075% (0.15 g), no L-cysteine HCl monohydrate, N2 done, dissolved oxygen 1.24 ppm): bit | Amount of insoluble matters/after sterilization [2, 8]: great | Odor/After sterilization [2, 8]: Sulfur | Amount of insoluble matters/after sterilization ([2]; sodium bisulfite 0.1% (0.2 g), no L-cysteine HCl monohydrate, N2 done, dissolved oxygen 1.39 ppm): bit | Amount of insoluble matters/after sterilization ([2]; sodium bisulfite 0.1% (0.2 g), no L-cysteine HCl monohydrate, N2 not done, dissolved oxygen 5.14 ppm): bit | Amount of insoluble matters/after sterilization ([2]; sodium bisulfite […] (0.05 g), L-cysteine HCl monohydrate 0.015 g (ratio 3/10), N2 done, dissolved oxygen 1.88 ppm): Bit | Amount of insoluble matters/after sterilization [2, 9]: great | Odor/After sterilization [2, 9]: Sulfur- | Amount of insoluble matters/after sterilization ([2]; sodium bisulfite […] (0.05 g), no L-cysteine HCl monohydrate, N2 done, dissolved oxygen 0.52 ppm): bit | Blood vessel stimulation [3, 10]: Detected | Precipitation at administration site [3, 10]: None*^2 | Blood vessel stimulation [3, 11]: Detected | Precipitation at administration site [3, 11]: None*^2 | Blood vessel stimulation [3, 12]: None | Precipitation at administration site [3, 12]: None*^2 | Blood vessel stimulation [3, 13]: None | Precipitation at administration site [3, 13]: None*^2 | Blood vessel stimulation [3, 14]: None | Precipitation at administration site [3, 14]: None*^2 | Blood vessel stimulation [3, 15]: None | Precipitation at administration site [3, 15]: None*^2 | Blood vessel stimulation [3, 16]: None | Precipitation at administration site [3, 16]: None*^2 | Blood vessel stimulation [3, 17]: Detected | Precipitation at administration site [3, 17]: Detected*^1 | Blood vessel stimulation [3, 18]: Detected | Precipitation at administration site [3, 18]: Detected*^1 | Blood vessel stimulation [3, 19]: Detected | Precipitation at administration site [3, 19]: Detected*^1
Compound: Cc1cc(OC[C@@H](O)CN2CCN(c3ccc(Cc4ccc(F)cc4)cc3)CC2)c(C)c(C)c1N [SUN N8075, (2S)-1-(4-amino-2,3,5-trimethylphenoxy)-3-{4-[4-(4-fluorobenzyl)phenyl]-1-piperazinyl}-2-propanol dimethane sulfonate]
